Data from patent US20110092591A1, “PHENYL-PRENYL DERIVATIVES, OF MARINE AND SYNTHETIC ORIGIN, FOR THE TREATMENT OF COGNITIVE, NEURODEGENERATIVE OR NEURONAL DISEASES OR DISORDERS” (NOSCIRA S.A., priority 2008, published 2011).

Assays:
Assay type in all cases: biochemical
[1] = target: T1, rhBACE-1 β-Secretase recombinant human (Homo sapiens, UniProt P56817); assay: BACE assay (FRET, fluorogenic peptide substrate); conditions: for % BACE Activity: percentage of the enzyme activity (remaining)
T1 construct: purchased R&D Systems 931-AS
Description: The aim of this assay is to determine if a compound, either synthetic or of marine origin, is a BACE-1 inhibitor, to avoid the formation of Aβ. This assay is based on FRET technology (Fluorescence Resonance Energy Transfer). FRET is used to measure cleavage of a peptide substrate, among other uses. […] When a substrate peptide cleavage occurs, the energy balance is broken and all the donor fluorescence can be observed. The increase in fluorescence is linearly related to the rate of proteolysis (Gordon, G W et al., 1998). In this assay the reaction occurs between an enzyme, purified BACE-1, and a fluorogenic peptidic substrate who present the “Swedish mutation”. The peptide cleavage by BACE-1 produces fluorescence energy and enzymatic activity can be quantified.
The reagents which are used in this assay are the following:
rhBACE-1 β-Secretase recombinant human (R&D Systems. Ref. 931-AS).
Fluorogenic Peptide Substrate IV (R&D Systems. Ref. ES004).
Beta-SECRETASE INHIBITOR H-4848. (BACHEM. Ref. H-4848.0001).
The assay is carried out in a 96 wells microplate. The final concentration of substrate is 3.5 μM per well, and the enzyme concentration is 0.5 μg/ml. The final volume of the assay is 100 μl per well and all reagents are diluted in Reaction Buffer.
The compounds are tested at a concentration of 10^−5 and 10^−6 M. The control in the assay is the commercial inhibitor β-Secretase inhibitor H-4848 from BACHEM, which is tested at 300 nM. All the samples and controls are studied by duplicate.
The plate is mixed gently and changes in the fluorescence are measured using a fluorimeter plate reader, with 320 nm excitation filter and 405 nm emission filter. The temperature should be preferably maintained between 25 and 30° C. Measurements are carried out every ten minutes during an hour. The first measure is subtracted from the last to calculate the fluorescence increase, evaluating the enzymatic activity. The 100% activity is calculated as the mean of the results of wells without sample or inhibitor.
In the cases where abnormal effects in fluorescence were detected, BACE inhibition activity was assayed using BACE-1 (beta-Secretase) FRET ASSAY KIT (Invitrogen, Ref. P2985). Fluorescence was measured with a fluorimeter plate reader, with 544 nm excitation filter and 580 nm emission filter.
Further information regarding this assay may be found in the following references, which are incorporated by reference into the present application: • Andrau, D et al; “BACE1- and BACE2-expressing human cells: characterization of beta-Amyloid precursor protein-derived catabolites, design of a novel fluorimetric assay, and identification of new in vitro inhibitors”. J Biol Chem. 2003 Jul. 11; 278(28):25859-66. • Gordon, G W et al; “Quantitative fluorescence resonance energy transfer measurements using fluorescence microscopy.” Biophys J. 1998 May; 74:2702-13.
The compounds of formula (I) of the present invention where submitted to the above indicated assay, in order to determine their BACE activity inhibition. The results are indicated in Table I, in percentage of the enzyme activity.

[2] = target: T2, Recombinant human glycogen synthase kinase 3 beta (Homo sapiens, UniProt P49841); assay: GSK-3 beta inhibition assay (33P-ATP, GS-2 peptide); conditions: 0.5 h, percentage of the enzyme activity (remaining), read-out: % Act. GSK-3 beta; for remaining activity at 25 µM: compound at 25 μM; for remaining activity at 50 µM: compound at 50 μM
Experimental: The GSK-3 beta activity of the compounds of formula (I) according to the present invention was determined by incubation of a mixture of recombinant human GSK-3 enzyme, a phosphate source and GSK-3 substrate in the presence and in the absence of the corresponding test compound, and by measuring the GSK-3 activity of this mixture. The compounds where tested at final concentrations of 25 and 50 μM.
Recombinant human glycogen synthase kinase 3 beta was assayed in MOPS 11 mM, pH 7.4, EDTA 0.2 mM, EGTA 1.25 mM, MgCl2 26.25 mM and sodium orthovanadate 0.25 mM in the presence of 62.5 μM of Phospho-Glycogen Synthase Peptide-2 (GS-2), 0.5 μCi gamma-^33P-ATP and unlabelled ATP at a final concentration of 12.5 μM. The final assay volume was 20 μl. After incubation for 30 minutes at 30° C., 15 μl aliquots were spotted onto P81 phosphocellulose papers. Filters were washed four times for at least 10 minutes each and counted with 1.5 ml of scintillation cocktail in a scintillation counter.
The compounds of formula (I) of the present invention where submitted to the above indicated assay, in order to determine their GSK-3 inhibition activity. The results are indicated in Table II, in percentage of the enzyme activity.

[3] = target: T2, Recombinant human glycogen synthase kinase 3 beta; assay: as above

T2 sequence (P49841 whole entry): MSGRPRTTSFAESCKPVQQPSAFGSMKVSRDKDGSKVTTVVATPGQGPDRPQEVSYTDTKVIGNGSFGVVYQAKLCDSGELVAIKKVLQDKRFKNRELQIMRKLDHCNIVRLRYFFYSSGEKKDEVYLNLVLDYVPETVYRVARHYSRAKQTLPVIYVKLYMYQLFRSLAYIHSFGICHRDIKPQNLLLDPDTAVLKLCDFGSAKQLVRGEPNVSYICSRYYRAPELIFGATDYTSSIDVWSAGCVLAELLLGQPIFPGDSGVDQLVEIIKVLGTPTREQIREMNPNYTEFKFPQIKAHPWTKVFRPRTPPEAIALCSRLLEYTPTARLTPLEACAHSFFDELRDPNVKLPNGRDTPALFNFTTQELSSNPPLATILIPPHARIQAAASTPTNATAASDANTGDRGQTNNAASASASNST
T1 sequence (P56817 46-457 limits assumed): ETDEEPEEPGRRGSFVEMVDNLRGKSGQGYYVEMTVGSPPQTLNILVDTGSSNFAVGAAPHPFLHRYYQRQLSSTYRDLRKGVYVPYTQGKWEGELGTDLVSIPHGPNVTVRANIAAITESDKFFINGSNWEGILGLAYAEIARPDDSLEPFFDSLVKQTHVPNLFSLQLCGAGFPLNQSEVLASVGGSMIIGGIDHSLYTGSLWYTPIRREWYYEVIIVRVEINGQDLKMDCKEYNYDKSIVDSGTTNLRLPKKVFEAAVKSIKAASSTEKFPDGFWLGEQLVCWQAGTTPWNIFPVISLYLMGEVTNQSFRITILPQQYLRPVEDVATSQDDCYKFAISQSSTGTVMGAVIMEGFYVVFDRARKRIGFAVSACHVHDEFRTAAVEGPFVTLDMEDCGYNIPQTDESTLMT

Row | SMILES | % BACE Activity ([1]; compound at 1 μM) [%] | % BACE Activity ([1]; compound at 10 μM) [%] | remaining activity at 25 µM [2] [%] | remaining activity at 50 µM [2] [%] | IC50 [3] [µM] | IC50 ([1]; given in M) [µM]
1 | CC(C)=CCC/C(C)=C/CC/C(C)=C/CC/C(C)=C/Cc1cc(C(=O)O)ccc1O [Compound 1, (2E,6E,10E)-4-Hydroxy-3-(3,7,11,15-tetramethyl-hexadeca-2,6,10,14-tetraenyl)-benzoic acid] | 45 ± 21 | 0 | 5.43 | 2.82 | 4.42 | –
2 | CC(C)=CCC/C(C)=C/CC/C(C)=C/CC/C(C)=C/Cc1cc(O)ccc1O [Compound 2] | 100 | 13 ± 14 | 37.7 | 5.04 | 12.5 | –
3 | C/C(=C\CC/C(C)=C/CC/C(C)=C/Cc1cc(C(=O)O)ccc1O)C/C=C/C(C)(C)O [Compound 3] | – | – | 52.9 | 4.19 | 55.8 | –
4 | CC(C)=CCC/C(C)=C/CC/C(C)=C/CC/C(C)=C/CC/C(C)=C/Cc1cc(O)ccc1O [Compound 4] | – | – | 17.8 | 17.7 | 9.97 | –
5 | COC(=O)c1ccc(O)c(C/C=C(\C)CC/C=C(\C)CC/C=C(\C)CCC=C(C)C)c1 [Compound 5] | – | – | – | 70.8 | – | –
6 | CC(C)=CCc1cc(C(=O)O)ccc1O [Compound 6] | 100 | 100 | 71.6 | 78 | – | –
7 | COCOc1ccc(C=O)cc1C/C=C(\C)CCC=C(C)C [Compound 8, (2E)-3-(3,7-dimethyl-octa-2,6-dienyl)-4-methoxymethoxy-benzaldehyde] | 100 | 42 ± 5 | 33.5 | 3.08 | 16 | –
8 | COCOc1ccc(C=O)cc1C/C=C(\C)CC/C=C(\C)CCC=C(C)C [Compound 9, (2E,6E)-4-methoxymethoxy-3-(3,7,11-trimethyl-dodeca-2,6,10-trienyl)-benzaldehyde] | 94 ± 22 | 60 ± 16 | 61.3 | 5.75 | – | 37
9 | CC(C)=CCC/C(C)=C/Cc1cc(C=O)ccc1O [Compound 11] | 91 ± 6 | 44 ± 12 | 12.1 | 1.07 | 8.6 | –
10 | CC(C)=CCC/C(C)=C/CC/C(C)=C/Cc1cc(C=O)ccc1O [Compound 12] | 57 ± 2 | 41 ± 4 | 9.26 | 0.95 | 7.87 | –
11 | CC(C)=CCC/C(C)=C/CC/C(C)=C/CC/C(C)=C/Cc1cc(C=O)ccc1O [Compound 13] | 100 | 88 ± 8.5 | 52 | 4.71 | 17.4 | –
12 | CC(C)=CCC/C(C)=C/Cc1cc(C(=O)O)ccc1O [Compound 14] | 100 | 84 ± 6 | 75.7 | 60.3 | – | –
